Laboratory results reported in ChEMBL document CHEMBL4680277, “Targeting Metabolism of Extracellular Nucleotides via Inhibition of Ectonucleotidases CD73 and CD39” (J Med Chem, 2020).
Each block holds one compound with its values, some of them ahead of it.

Legend:
[1] = target: T1, Ectonucleoside triphosphate diphosphohydrolase 1 (Homo sapiens, UniProt P49961); experiment: Inhibition of human CD39 using ATP as substrate preincubated for 3 mins followed by substrate addition and measured after 10 to 15 mins by Malachite green reagent based assay
T1 sequence (P49961 whole entry): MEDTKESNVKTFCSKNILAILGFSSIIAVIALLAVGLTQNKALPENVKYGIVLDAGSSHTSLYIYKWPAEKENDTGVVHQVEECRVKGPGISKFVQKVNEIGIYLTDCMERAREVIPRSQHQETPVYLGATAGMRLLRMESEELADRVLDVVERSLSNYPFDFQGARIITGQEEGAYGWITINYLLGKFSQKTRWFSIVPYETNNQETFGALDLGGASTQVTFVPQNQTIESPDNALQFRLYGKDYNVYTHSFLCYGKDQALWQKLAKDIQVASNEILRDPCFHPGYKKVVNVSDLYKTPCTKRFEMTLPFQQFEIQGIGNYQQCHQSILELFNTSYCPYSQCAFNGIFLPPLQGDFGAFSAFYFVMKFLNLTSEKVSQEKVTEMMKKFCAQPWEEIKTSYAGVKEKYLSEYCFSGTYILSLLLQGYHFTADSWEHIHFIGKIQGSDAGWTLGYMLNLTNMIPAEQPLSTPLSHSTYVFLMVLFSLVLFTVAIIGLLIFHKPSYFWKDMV

[2] = Half-life in human at 25 mg, iv infusion dosed once every 2 weeks; assay type: ADME, organism-based; settings: in vivo
5'-nucleotidase [3] = target: T2, 5'-nucleotidase (Homo sapiens, UniProt P21589); experiment: Inhibition of human C-terminal 6His-tagged CD73 (1 to 547 residues) expressed in HEK293F cells using 2 uM AMP as substrate by rapidfire mass spectrometry assay
[4] = Inhibition of human FLAG-tagged CD73 Thr376Ala mutant (1 to 552 residues) assessed as reduction in adenosine formation using AMP as substrate preincubated for 10 mins followed by substrate addition and measured after 30 mins by rapidfire mass spectrometry assay
5'-nucleotidase [5] = target: T2, 5'-nucleotidase; experiment: Inhibition of CD73 in human serum using 13C5-15N5-AMP as substrate preincubated for 60 mins followed by substrate addition and measured after 15 mins by LC/MS based assay; assay type: cell-free
[6] = target: T3, Ectonucleoside triphosphate diphosphohydrolase 1 (Rattus norvegicus, UniProt P97687); experiment: Inhibition of rat CD39 expressed in CHO cells using ATP as substrate incubated for 10 mins by UV absorbance method; assay type: cell-based; settings: cho
T3 sequence (P97687 whole entry): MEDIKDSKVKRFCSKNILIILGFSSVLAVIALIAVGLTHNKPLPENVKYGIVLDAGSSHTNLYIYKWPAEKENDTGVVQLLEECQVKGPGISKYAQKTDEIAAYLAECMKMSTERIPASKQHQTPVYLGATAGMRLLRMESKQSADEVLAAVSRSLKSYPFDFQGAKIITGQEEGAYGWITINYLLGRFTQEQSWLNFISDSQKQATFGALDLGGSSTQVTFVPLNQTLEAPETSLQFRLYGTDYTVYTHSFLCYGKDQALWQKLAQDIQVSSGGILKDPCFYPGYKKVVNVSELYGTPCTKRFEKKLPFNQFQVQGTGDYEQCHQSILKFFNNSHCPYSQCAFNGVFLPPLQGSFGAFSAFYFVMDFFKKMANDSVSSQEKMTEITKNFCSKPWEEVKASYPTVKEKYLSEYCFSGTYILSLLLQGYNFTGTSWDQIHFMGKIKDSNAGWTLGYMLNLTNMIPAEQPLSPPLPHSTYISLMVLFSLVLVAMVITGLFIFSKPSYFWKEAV

[7] = target: T4, Ectonucleoside triphosphate diphosphohydrolase 2 (Rattus norvegicus, UniProt O35795); experiment: Inhibition of rat NTPDase2 expressed in CHO cells using ATP as substrate incubated for 10 mins by UV absorbance method; assay type: cell-based; settings: cho
T4 sequence (O35795 whole entry): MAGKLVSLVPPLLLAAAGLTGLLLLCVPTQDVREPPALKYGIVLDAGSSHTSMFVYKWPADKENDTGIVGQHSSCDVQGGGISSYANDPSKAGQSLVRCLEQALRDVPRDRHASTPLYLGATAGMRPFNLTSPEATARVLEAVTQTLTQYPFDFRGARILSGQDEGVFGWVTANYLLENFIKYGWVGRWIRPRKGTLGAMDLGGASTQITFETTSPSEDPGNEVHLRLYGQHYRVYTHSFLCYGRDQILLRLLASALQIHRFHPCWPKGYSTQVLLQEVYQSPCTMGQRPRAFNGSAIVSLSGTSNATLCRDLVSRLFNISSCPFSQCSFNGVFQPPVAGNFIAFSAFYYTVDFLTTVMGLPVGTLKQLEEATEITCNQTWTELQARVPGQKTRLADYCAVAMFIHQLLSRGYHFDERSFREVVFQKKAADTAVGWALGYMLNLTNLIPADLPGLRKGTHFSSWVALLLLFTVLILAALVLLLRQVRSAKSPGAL

[8] = Inhibition of rat NTPDase3 expressed in CHO cells using ATP as substrate incubated for 10 mins by UV absorbance method; assay type: cell-based
5'-nucleotidase [9] = target: T2, 5'-nucleotidase; experiment: Inhibition of recombinant human CD73 using AMP as substrate incubated for 90 mins by malachite green colorimetric assay
5'-nucleotidase [10] = target: T2, 5'-nucleotidase; experiment: Inhibition of CD73 in human melanoma 1539 cells using AMP substrate by capillary electrophoresis assay; assay type: cell-based, NW1539
5'-nucleotidase [11] = target: T2, 5'-nucleotidase; experiment: Inhibition of human C-terminal His6-tagged CD73 expressed in HEK293F cells using [15N]5-AMP as substrate preincubated for 1 hr followed by substrate addition and measured after 8 mins by MS/MS assay
5'-nucleotidase [12] = target: T2, 5'-nucleotidase; experiment: Inhibition of human CD73 expressed in CHO cells using AMP as substrate preincubated for 10 mins followed by substrate addition and measured every minute for 10 to 20 mins by PNP coupled enzyme assay; assay type: cell-based
5'-nucleotidase [13] = target: T5, 5'-nucleotidase (Rattus norvegicus, UniProt P21588); experiment: Inhibition of rat CD73 expressed in baculovirus infected insect cells using AMP substrate by capillary electrophoresis assay
T5 sequence (P21588 whole entry): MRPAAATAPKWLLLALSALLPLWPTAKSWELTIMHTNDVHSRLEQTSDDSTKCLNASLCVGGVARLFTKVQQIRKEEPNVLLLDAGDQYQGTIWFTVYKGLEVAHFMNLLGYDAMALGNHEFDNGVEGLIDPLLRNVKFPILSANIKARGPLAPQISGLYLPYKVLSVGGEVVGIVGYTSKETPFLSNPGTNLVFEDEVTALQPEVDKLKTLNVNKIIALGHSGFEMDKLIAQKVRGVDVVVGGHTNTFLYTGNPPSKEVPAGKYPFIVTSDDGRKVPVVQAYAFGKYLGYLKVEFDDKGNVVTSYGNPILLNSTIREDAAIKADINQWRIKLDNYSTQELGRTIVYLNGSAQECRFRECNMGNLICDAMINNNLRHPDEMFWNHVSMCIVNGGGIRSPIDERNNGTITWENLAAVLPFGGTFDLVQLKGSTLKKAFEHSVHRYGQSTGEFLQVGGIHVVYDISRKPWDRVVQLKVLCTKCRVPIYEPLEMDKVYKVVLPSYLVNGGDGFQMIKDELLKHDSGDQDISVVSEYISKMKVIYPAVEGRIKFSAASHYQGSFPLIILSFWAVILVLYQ

5'-nucleotidase [14] = target: T2, 5'-nucleotidase; experiment: Inhibition of recombinant human CD73 using AMP as substrate incubated for 120 mins by CellTiter-Glo assay

T2 sequence (P21589 whole entry, the tested form may be a part): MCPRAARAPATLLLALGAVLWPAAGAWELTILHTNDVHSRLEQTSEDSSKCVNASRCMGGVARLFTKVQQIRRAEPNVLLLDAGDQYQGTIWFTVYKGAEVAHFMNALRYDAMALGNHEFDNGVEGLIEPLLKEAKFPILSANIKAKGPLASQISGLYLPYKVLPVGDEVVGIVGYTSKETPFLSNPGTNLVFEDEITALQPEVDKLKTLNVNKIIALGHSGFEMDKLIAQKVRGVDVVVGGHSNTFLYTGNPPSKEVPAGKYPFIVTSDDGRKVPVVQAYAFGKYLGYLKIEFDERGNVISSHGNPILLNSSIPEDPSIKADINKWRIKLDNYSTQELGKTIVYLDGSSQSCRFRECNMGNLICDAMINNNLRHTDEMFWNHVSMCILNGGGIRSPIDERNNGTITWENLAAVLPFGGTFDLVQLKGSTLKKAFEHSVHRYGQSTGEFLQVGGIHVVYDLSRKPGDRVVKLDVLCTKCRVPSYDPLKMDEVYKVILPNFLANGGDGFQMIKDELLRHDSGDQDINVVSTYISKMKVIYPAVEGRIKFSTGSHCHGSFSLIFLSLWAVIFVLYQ

- IC50 [1]: 35000 nM
Structure (SMILES): CCCCSc1nc2c(N)ncnc2n1[C@@H]1O[C@H](COP(=O)(O)O)[C@@H](O)[C@H]1O

- half-life [2]: 74 h
Structure (SMILES): C[C@H](Nc1cc(Cl)nc2c1cnn2[C@@H]1O[C@H](COP(=O)(O)CP(=O)(O)O)[C@@H](O)[C@H]1O)c1ccccc1F

- IC50 (5'-nucleotidase [3]): < 62 nM
- EC50 (5'-nucleotidase [5]): 51 nM
Structure (SMILES): Cc1nnc(-c2c[nH]c(=O)[nH]c2=O)cc1[C@H]1C[C@@H]1C(F)F

- IC50 (5'-nucleotidase [3]): < 62 nM
Structure (SMILES): Cc1nnc(-c2c[nH]c(=O)[nH]c2=O)cc1[C@H]1C[C@@H]1CCF

- IC50 (5'-nucleotidase [3]): < 62 nM
Structure (SMILES): CC(C)[C@H]1C[C@@H]1c1cc(-c2c[nH]c(=O)[nH]c2=O)nnc1C#N

- IC50 (5'-nucleotidase [3]): < 62 nM
Structure (SMILES): N#Cc1nnc(-c2c[nH]c(=O)[nH]c2=O)cc1[C@@H]1CC1(F)F

More lines, now with the values behind:

Structure (SMILES): N#Cc1nnc(-c2c[nH]c(=O)[nH]c2=O)cc1C1CCC1
- IC50 (5'-nucleotidase [3]): < 62 nM

Structure (SMILES): O=S1(=O)NC(Nc2cccc3[nH]ncc23)=Nc2c1cc(Cl)c(F)c2O
- IC50 [4]: 15 nM

Structure (SMILES): NC(=O)c1cc2c(c(Cl)c1O)NCCOCCCCCc1cc(cc3[nH]ccc13)NS2(=O)=O
- IC50 [4]: 4 nM

Structure (SMILES): CC(C)[C@H]1C[C@@H]1c1cc(-c2c[nH]c(=O)[nH]c2=O)nnc1Cl
- IC50 (5'-nucleotidase [3]): < 62 nM

Structure (SMILES): COc1nnc(-c2c[nH]c(=O)[nH]c2=O)cc1C1CCC(F)(F)C1 (centres undefined)
- IC50 (5'-nucleotidase [3]): < 62 nM
- IC50 (5'-nucleotidase [3]; hek293f): < 62 nM

Structure (SMILES): O=c1[nH]cc(-c2cc(C3CC3)c(Cl)nn2)c(=O)[nH]1
- IC50 (5'-nucleotidase [3]): < 62 nM

Structure (SMILES): Nc1c(S(=O)(=O)O)cc(Nc2ccc(Cl)cc2)c2c1C(=O)c1ccccc1C2=O
- Ki [6]: 15700 nM
- Ki [7]: 18000 nM
- Ki [8]: 16400 nM

Structure (SMILES): O=c1[nH]cc(-c2cc(C3CCC3)c(Cl)nn2)c(=O)[nH]1
- IC50 (5'-nucleotidase [3]): < 62 nM

Structure (SMILES): O=c1[nH]cc(-c2cc([C@H]3C[C@@H]3C(F)F)c(Cl)nn2)c(=O)[nH]1
- IC50 (5'-nucleotidase [3]): < 62 nM

Structure (SMILES): COc1nnc(-c2c[nH]c(=O)[nH]c2=O)cc1C1CC(F)(F)C1
- IC50 (5'-nucleotidase [3]): < 62 nM

Structure (SMILES): Nc1ncnc2c1ncn2[C@@H]1O[C@H](COP(=O)(O)CP(=O)(O)O)[C@@H](O)[C@H]1O [PHOSPHOMETHYLPHOSPHONIC ACID ADENOSYL ESTER]
- IC50 (5'-nucleotidase [9]): 1100 nM
- Ki (5'-nucleotidase [10]): 510 nM
- IC50 (5'-nucleotidase [11]): 60 nM
- IC50 (5'-nucleotidase [12]): 50 nM
- Ki (5'-nucleotidase [13]): 870 nM
- IC50 (5'-nucleotidase [14]): 2500 nM

Structure (SMILES): CC[C@H]1C[C@@H]1c1cc(-c2c[nH]c(=O)[nH]c2=O)nnc1C#N
- IC50 (5'-nucleotidase [3]): < 62 nM

Structure (SMILES): N#Cc1nnc(-c2c[nH]c(=O)[nH]c2=O)cc1[C@H]1C[C@@H]1C(F)F
- IC50 (5'-nucleotidase [3]): < 62 nM

Structure (SMILES): COc1nnc(-c2c[nH]c(=O)[nH]c2=O)cc1C1CCC1
- IC50 (5'-nucleotidase [3]): < 62 nM
